Source: ChEMBL document CHEMBL2046396, “Discovery and modification of sulfur-containing heterocyclic pyrazoline derivatives as potential novel class of β-ketoacyl-acyl carrier protein synthase III (FabH) inhibitors” (Bioorg Med Chem Lett, 2012)
Values after ≈ are worked out from the molar mass of the structure shown.

Experiments:
[1] = system: Escherichia coli; test: Antibacterial activity against Escherichia coli ATCC 25922 after 24 hrs by MTT assay; format: functional; settings: ATCC 25922, 24 h
[2] = system: Pseudomonas aeruginosa; test: Antibacterial activity against Pseudomonas aeruginosa ATCC 27853 after 24 hrs by MTT assay; format: functional; settings: ATCC 27853, 24 h
[3] = system: Staphylococcus aureus; test: Antibacterial activity against Staphylococcus aureus ATCC 6538 after 24 hrs by MTT assay; format: functional; settings: ATCC 6538, 24 h
[4] = system: Bacillus subtilis; test: Antibacterial activity against Bacillus subtilis ATCC 530 after 24 hrs by MTT assay; format: functional; settings: ATCC 530, 24 h
[5] = Inhibition of Escherichia coli FabH expressed in Escherichia coli BL21(DE3) using holo-ACP as substrate after 25 mins
[6] = Toxicity in RBC assessed as concentration required for 30% hemolysis; format: cell-based; settings: erythrocyte

Cc1ccc(C2=NN(C3=NC(=O)CS3)C(c3ccccc3)C2)cc1 (stereo not given)
MIC [1]: 12.5 µg/mL (≈ 37.3 µM) | MIC [2]: 12.5 µg/mL (≈ 37.3 µM) | MIC [3]: 6.25 µg/mL (≈ 18.6 µM) | MIC [4]: 12.5 µg/mL (≈ 37.3 µM)

Fc1ccc(C2=NN(c3nc(-c4ccccc4)cs3)C(c3cccs3)C2)cc1 (stereo not given)
MIC [1]: 12.5 µg/mL (≈ 30.8 µM) | MIC [2]: 12.5 µg/mL (≈ 30.8 µM) | MIC [3]: 12.5 µg/mL (≈ 30.8 µM) | MIC [4]: 50 µg/mL (≈ 123 µM)

Brc1ccc(C2=NN(c3nc(-c4ccccc4)cs3)C(c3cccs3)C2)cc1 (stereo not given)
MIC [1]: 6.25 µg/mL (≈ 13.4 µM) | MIC [2]: 12.5 µg/mL (≈ 26.8 µM) | MIC [3]: 12.5 µg/mL (≈ 26.8 µM) | MIC [4]: 6.25 µg/mL (≈ 13.4 µM) | IC50 [5]: 23.3 µM | HC30 [6]: > 10 mg/mL

Clc1ccc(C2=NN(c3nc(-c4ccccc4)cs3)C(c3cccs3)C2)cc1Cl (stereo not given)
MIC [1]: 50 µg/mL (≈ 110 µM) | MIC [2]: 12.5 µg/mL (≈ 27.4 µM) | MIC [3]: > 50 µg/mL | MIC [4]: 12.5 µg/mL (≈ 27.4 µM) | IC50 [5]: > 150 µM | HC30 [6]: > 10 mg/mL

Cc1ccc(C2=NN(c3nc(-c4ccccc4)cs3)C(c3cccs3)C2)cc1 (stereo not given)
MIC [1]: 3.13 µg/mL (≈ 7.79 µM) | MIC [2]: 1.56 µg/mL (≈ 3.88 µM) | MIC [3]: 1.56 µg/mL (≈ 3.88 µM) | MIC [4]: 3.13 µg/mL (≈ 7.79 µM) | IC50 [5]: 10.9 µM | HC30 [6]: > 10 mg/mL

COc1ccc(C2=NN(c3nc(-c4ccccc4)cs3)C(c3cccs3)C2)cc1 (stereo not given)
MIC [1]: 6.25 µg/mL (≈ 15 µM) | MIC [2]: 50 µg/mL (≈ 120 µM) | MIC [3]: 6.25 µg/mL (≈ 15 µM) | MIC [4]: 12.5 µg/mL (≈ 29.9 µM) | IC50 [5]: 30.6 µM | HC30 [6]: > 10 mg/mL

COc1ccc(-c2csc(N3N=C(c4ccc(F)cc4)CC3c3cccs3)n2)cc1 (stereo not given)
MIC [1]: 12.5 µg/mL (≈ 28.7 µM) | MIC [2]: 12.5 µg/mL (≈ 28.7 µM) | MIC [3]: 12.5 µg/mL (≈ 28.7 µM) | MIC [4]: 12.5 µg/mL (≈ 28.7 µM)

COc1ccc(-c2csc(N3N=C(c4ccc(Br)cc4)CC3c3cccs3)n2)cc1 (stereo not given)
MIC [1]: 6.25 µg/mL (≈ 12.6 µM) | MIC [2]: 12.5 µg/mL (≈ 25.2 µM) | MIC [3]: 12.5 µg/mL (≈ 25.2 µM) | MIC [4]: 12.5 µg/mL (≈ 25.2 µM)

COc1ccc(-c2csc(N3N=C(c4ccc(Cl)c(Cl)c4)CC3c3cccs3)n2)cc1 (stereo not given)
MIC [1]: 50 µg/mL (≈ 103 µM) | MIC [2]: 12.5 µg/mL (≈ 25.7 µM) | MIC [3]: 50 µg/mL (≈ 103 µM) | MIC [4]: 12.5 µg/mL (≈ 25.7 µM) | IC50 [5]: > 150 µM | HC30 [6]: > 10 mg/mL

COc1ccc(-c2csc(N3N=C(c4ccc(C)cc4)CC3c3cccs3)n2)cc1 (stereo not given)
MIC [1]: 6.25 µg/mL (≈ 14.5 µM) | MIC [2]: 12.5 µg/mL (≈ 29 µM) | MIC [3]: 12.5 µg/mL (≈ 29 µM) | MIC [4]: 6.25 µg/mL (≈ 14.5 µM)

COc1ccc(C2=NN(c3nc(-c4ccc(OC)cc4)cs3)C(c3cccs3)C2)cc1 (stereo not given)
MIC [1]: 12.5 µg/mL (≈ 27.9 µM) | MIC [2]: 12.5 µg/mL (≈ 27.9 µM) | MIC [3]: 12.5 µg/mL (≈ 27.9 µM) | MIC [4]: 50 µg/mL (≈ 112 µM)

Fc1ccc(C2=NN(c3nc(-c4ccccc4)cs3)C(c3ccco3)C2)cc1 (stereo not given)
MIC [1]: 6.25 µg/mL (≈ 16 µM) | MIC [2]: 12.5 µg/mL (≈ 32.1 µM) | MIC [3]: 6.25 µg/mL (≈ 16 µM) | MIC [4]: 50 µg/mL (≈ 128 µM) | IC50 [5]: 22.3 µM | HC30 [6]: > 10 mg/mL

Brc1ccc(C2=NN(c3nc(-c4ccccc4)cs3)C(c3ccco3)C2)cc1 (stereo not given)
MIC [1]: 3.13 µg/mL (≈ 6.95 µM) | MIC [2]: 3.13 µg/mL (≈ 6.95 µM) | MIC [3]: 1.56 µg/mL (≈ 3.46 µM) | MIC [4]: 3.13 µg/mL (≈ 6.95 µM) | IC50 [5]: 9.7 µM | HC30 [6]: > 10 mg/mL

Clc1ccc(C2=NN(c3nc(-c4ccccc4)cs3)C(c3ccco3)C2)cc1Cl (stereo not given)
MIC [1]: 12.5 µg/mL (≈ 28.4 µM) | MIC [2]: > 50 µg/mL | MIC [3]: 12.5 µg/mL (≈ 28.4 µM) | MIC [4]: 12.5 µg/mL (≈ 28.4 µM)

Cc1ccc(C2=NN(c3nc(-c4ccccc4)cs3)C(c3ccco3)C2)cc1 (stereo not given)
MIC [1]: 1.56 µg/mL (≈ 4.05 µM) | MIC [2]: 1.56 µg/mL (≈ 4.05 µM) | MIC [3]: 1.56 µg/mL (≈ 4.05 µM) | MIC [4]: 3.13 µg/mL (≈ 8.12 µM) | IC50 [5]: 4.6 µM | HC30 [6]: > 10 mg/mL

COc1ccc(-c2csc(N3N=C(c4ccc(F)cc4)CC3c3ccco3)n2)cc1 (stereo not given)
MIC [1]: 6.25 µg/mL (≈ 14.9 µM) | MIC [2]: 6.25 µg/mL (≈ 14.9 µM) | MIC [3]: 12.5 µg/mL (≈ 29.8 µM) | MIC [4]: 12.5 µg/mL (≈ 29.8 µM)

COc1ccc(-c2csc(N3N=C(c4ccc(Br)cc4)CC3c3ccco3)n2)cc1 (stereo not given)
MIC [1]: 6.25 µg/mL (≈ 13 µM) | MIC [2]: 6.25 µg/mL (≈ 13 µM) | MIC [3]: 12.5 µg/mL (≈ 26 µM) | MIC [4]: 6.25 µg/mL (≈ 13 µM) | IC50 [5]: 19.7 µM | HC30 [6]: > 10 mg/mL

COc1ccc(-c2csc(N3N=C(c4ccc(Cl)c(Cl)c4)CC3c3ccco3)n2)cc1 (stereo not given)
MIC [1]: 50 µg/mL (≈ 106 µM) | MIC [2]: > 50 µg/mL | MIC [3]: 12.5 µg/mL (≈ 26.6 µM) | MIC [4]: > 50 µg/mL

COc1ccc(-c2csc(N3N=C(c4ccc(C)cc4)CC3c3ccco3)n2)cc1 (stereo not given)
MIC [1]: 3.13 µg/mL (≈ 7.53 µM) | MIC [2]: 3.13 µg/mL (≈ 7.53 µM) | MIC [3]: 6.25 µg/mL (≈ 15 µM) | MIC [4]: 6.25 µg/mL (≈ 15 µM) | IC50 [5]: 15.7 µM | HC30 [6]: > 10 mg/mL

O=C1CSC(N2N=C(c3ccc(F)cc3)CC2c2cccs2)=N1 (stereo not given)
MIC [1]: 6.25 µg/mL (≈ 18.1 µM) | MIC [2]: > 50 µg/mL | MIC [3]: 12.5 µg/mL (≈ 36.2 µM) | MIC [4]: 12.5 µg/mL (≈ 36.2 µM)

O=C1CSC(N2N=C(c3ccc(Br)cc3)CC2c2cccs2)=N1 (stereo not given)
MIC [1]: 6.25 µg/mL (≈ 15.4 µM) | MIC [2]: 6.25 µg/mL (≈ 15.4 µM) | MIC [3]: 12.5 µg/mL (≈ 30.8 µM) | MIC [4]: 12.5 µg/mL (≈ 30.8 µM) | IC50 [5]: 27.1 µM | HC30 [6]: > 10 mg/mL

O=C1CSC(N2N=C(c3ccc(Cl)c(Cl)c3)CC2c2cccs2)=N1 (stereo not given)
MIC [1]: 12.5 µg/mL (≈ 31.5 µM) | MIC [2]: 12.5 µg/mL (≈ 31.5 µM) | MIC [3]: 12.5 µg/mL (≈ 31.5 µM) | MIC [4]: > 50 µg/mL

Cc1ccc(C2=NN(C3=NC(=O)CS3)C(c3cccs3)C2)cc1 (stereo not given)
MIC [1]: 6.25 µg/mL (≈ 18.3 µM) | MIC [2]: 6.25 µg/mL (≈ 18.3 µM) | MIC [3]: 3.13 µg/mL (≈ 9.17 µM) | MIC [4]: 6.25 µg/mL (≈ 18.3 µM) | IC50 [5]: 13.6 µM | HC30 [6]: > 10 mg/mL

COc1ccc(C2=NN(C3=NC(=O)CS3)C(c3cccs3)C2)cc1 (stereo not given)
MIC [1]: 12.5 µg/mL (≈ 35 µM) | MIC [2]: > 50 µg/mL | MIC [3]: 12.5 µg/mL (≈ 35 µM) | MIC [4]: 50 µg/mL (≈ 140 µM) | IC50 [5]: 89.9 µM | HC30 [6]: > 10 mg/mL

O=C1CSC(N2N=C(c3ccc(F)cc3)CC2c2ccco2)=N1 (stereo not given)
MIC [1]: 3.13 µg/mL (≈ 9.5 µM) | MIC [2]: 6.25 µg/mL (≈ 19 µM) | MIC [3]: 3.13 µg/mL (≈ 9.5 µM) | MIC [4]: 3.13 µg/mL (≈ 9.5 µM) | IC50 [5]: 8.4 µM | HC30 [6]: > 10 mg/mL

O=C1CSC(N2N=C(c3ccc(Br)cc3)CC2c2ccco2)=N1 (stereo not given)
MIC [1]: 6.25 µg/mL (≈ 16 µM) | MIC [2]: 12.5 µg/mL (≈ 32 µM) | MIC [3]: 6.25 µg/mL (≈ 16 µM) | MIC [4]: 12.5 µg/mL (≈ 32 µM)

O=C1CSC(N2N=C(c3ccc(Cl)c(Cl)c3)CC2c2ccco2)=N1 (stereo not given)
MIC [1]: 12.5 µg/mL (≈ 32.9 µM) | MIC [2]: 12.5 µg/mL (≈ 32.9 µM) | MIC [3]: 6.25 µg/mL (≈ 16.4 µM) | MIC [4]: 12.5 µg/mL (≈ 32.9 µM)

Cc1ccc(C2=NN(C3=NC(=O)CS3)C(c3ccco3)C2)cc1 (stereo not given)
MIC [1]: 3.13 µg/mL (≈ 9.62 µM) | MIC [2]: 6.25 µg/mL (≈ 19.2 µM) | MIC [3]: 6.25 µg/mL (≈ 19.2 µM) | MIC [4]: 3.13 µg/mL (≈ 9.62 µM) | IC50 [5]: 18.4 µM | HC30 [6]: > 10 mg/mL

Cc1ccc(C2=NN(c3nc(-c4ccccc4)cs3)C(c3ccccc3)C2)cc1 (stereo not given)
MIC [1]: 6.25 µg/mL (≈ 15.8 µM) | MIC [2]: 12.5 µg/mL (≈ 31.6 µM) | MIC [3]: 12.5 µg/mL (≈ 31.6 µM) | MIC [4]: 12.5 µg/mL (≈ 31.6 µM)

NC[C@H]1O[C@H](O[C@H]2[C@H](O)[C@@H](O[C@H]3O[C@H](CO)[C@@H](O)[C@H](N)[C@H]3O)[C@H](N)C[C@@H]2N)[C@H](N)[C@@H](O)[C@@H]1O [BEKANAMYCIN]
MIC [1]: 1.56 µg/mL (≈ 3.23 µM) | MIC [2]: 1.56 µg/mL (≈ 3.23 µM) | MIC [3]: 3.13 µg/mL (≈ 6.47 µM) | MIC [4]: 3.13 µg/mL (≈ 6.47 µM)
